molecular target: T1, human S1P1 receptor (Homo sapiens, UniProt P21453); assay: GTP γ35S binding assay for S1P1 activity; format: biochemical; conditions: membranes of cells stably expressing the S1P1 receptor, read-out: Activity potency: S1P1 receptor from GTP γ35S, S1P1 EC50
T1 construct: expressed in transfected cells; membranes were used
Protocol: Compounds were tested for S1P1 activity using the GTP γ^35S binding assay. These compounds may be assessed for their ability to activate or block activation of the human S1P1 receptor in cells stably expressing the S1P1 receptor.
GTP γ^35S binding was measured in the medium containing (mM) HEPES 25, pH 7.4, MgCl2 10, NaCl 100, dithitothreitol 0.5, digitonin 0.003%, 0.2 nM GTP γ^355, and 5 μg membrane protein in a volume of 150 μl. Test compounds were included in the concentration range from 0.08 to 5,000 nM unless indicated otherwise. Membranes were incubated with 100 μM 5′-adenylylimmidodiphosphate for 30 min, and subsequently with 10 μM GDP for 10 min on ice. Drug solutions and membrane were mixed, and then reactions were initiated by adding GTP γ^355 and continued for 30 min at 25° C. Reaction mixtures were filtered over Whatman GF/B filters under vacuum, and washed three times with 3 mL of ice-cold buffer (HEPES 25, pH7.4, MgCl2 10 and NaCl 100). Filters were dried and mixed with scintillant, and counted for ^35S activity using a 8-counter. Agonist-induced GTP γ^355 binding was obtained by subtracting that in the absence of agonist. Binding data were analyzed using a non-linear regression method. In case of antagonist assay, the reaction mixture contained 10 nM S1P in the presence of test antagonist at concentrations ranging from 0.08 to 5000 nM.

T1 sequence (P21453 whole entry): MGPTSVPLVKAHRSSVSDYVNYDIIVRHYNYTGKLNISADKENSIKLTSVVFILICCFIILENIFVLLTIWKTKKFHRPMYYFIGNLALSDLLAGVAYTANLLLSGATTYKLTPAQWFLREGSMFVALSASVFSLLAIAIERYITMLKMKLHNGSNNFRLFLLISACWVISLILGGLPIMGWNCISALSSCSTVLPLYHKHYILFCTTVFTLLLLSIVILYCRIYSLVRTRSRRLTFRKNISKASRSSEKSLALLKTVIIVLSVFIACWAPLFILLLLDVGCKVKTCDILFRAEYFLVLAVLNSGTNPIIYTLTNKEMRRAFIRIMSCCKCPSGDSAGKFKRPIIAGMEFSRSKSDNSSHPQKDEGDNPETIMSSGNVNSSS

Compound	EC50 [nM]
O=P(O)(O)CCCNCc1ccc(SCCCCCc2ccccc2)cc1C(F)(F)F [Compound 3, [3-({4-[(5-phenylpentyl)thio]-2-(trifluoromethyl)benzyl}amino)propyl]phosphonic acid]	13.6
O=P(O)(O)CCCNCc1ccc(SCCCCCc2ccccc2)cc1Cl [Compound 4, [3-({2-chloro-4-[(5-phenylpentyl)thio]benzyl}amino)propyl]phosphonic acid]	2.2
O=P(O)(O)CCCNCc1ccc(SCCCCCc2ccccc2)c(Cl)c1 [Compound 5, [3-({3-chloro-4-[(5-phenylpentyl)thio]benzyl}amino)propyl]phosphonic acid]	1.5
O=P(O)(O)CCCNCc1ccc(SCCCCCc2ccccc2)cc1 [Compound 6, [3-({4-[(5-phenylpentyl)thio]benzyl}amino)propyl]phosphonic acid]	3.3
O=P(O)(O)CCCNCc1ccc(SCCCCCc2ccccc2)c(OC(F)(F)F)c1 [Compound 7, [3-({4-[(5-phenylpentyl)thio]-3-(trifluoromethoxy)benzyl}amino)propyl]phosphonic acid]	0.6
N#Cc1cc(CNCCCP(=O)(O)O)ccc1SCCCCCc1ccccc1 [Compound 8, [3-({3-cyano-4-[(5-phenylpentyl)thio]benzyl}amino)propyl]phosphonic acid]	6.1
Cc1cc(CNCCCP(=O)(O)O)ccc1SCCCCCc1ccc(F)cc1 [Compound 9, {3-[(4-{[5-(4-fluorophenyl)pentyl]thio}-3-methylbenzyl)amino]propyl}phosphonic acid]	27.2
O=P(O)(O)CCCNCc1ccc(SCCCCCc2ccc(F)cc2)c(C(F)(F)F)c1 [Compound 10, (3-{[4-{[5-(4-fluorophenyl)pentyl]thio}-3-(trifluoromethyl)benzyl]amino}propyl)phosphonic acid]	5.4
COc1ccc(CCCCCSc2ccc(CNCCCP(=O)(O)O)cc2C(F)(F)F)cc1 [Compound 11, (3-{[4-{[5-(4-methoxyphenyl)pentyl]thio}-3-(trifluoromethyl)benzyl]amino}propyl)phosphonic acid]	60.6
O=P(O)(O)CCCNCc1ccc(SCCCCCc2ccc(Cl)cc2)c(C(F)(F)F)c1 [Compound 13, (3-{[4-{[5-(4-chlorophenyl)pentyl]thio}-3-(trifluoromethyl)benzyl]amino}propyl)phosphonic acid]	4.6
O=P(O)(O)CCCNCc1ccc(SCCCCCc2ccc(Cl)cc2)c(OC(F)(F)F)c1 [Compound 14, (3-{[4-{[5-(4-chlorophenyl)pentyl]thio}-3-(trifluoromethoxy)benzyl]amino}propyl)phosphonic acid]	7.9
O=P(O)(O)CCCNCc1ccc(SCCCCCc2ccc(F)cc2)c(OC(F)(F)F)c1 [Compound 15, (3-{[4-{[5-(4-fluorophenyl)pentyl]thio}-3-(trifluoromethoxy)benzyl]amino}propyl)phosphonic acid]	1.6
Cc1ccc(CCCCCSc2ccc(CNCCCP(=O)(O)O)cc2OC(F)(F)F)cc1 [Compound 16, (3-{[4-{[5-(4-methylphenyl)pentyl]thio}-3 (trifluoromethoxy)benzyl]amino}propyl)phosphonic acid]	3.5
O=P(O)(O)C(F)(F)CCNCc1ccc(SCCCCCc2ccccc2)c(Cl)c1 [Compound 17, [3-({3-chloro-4-[(5-phenylpentyl)thio]benzyl}amino)-1,1-difluoropropyl]phosphonic acid]	4.8
O=P(O)(O)C(F)(F)CCNCc1ccc(SCCCCCc2ccccc2)c(OC(F)(F)F)c1 [Compound 18, [1,1-difluoro-3-({4-[(5-phenylpentyl)thio]-3-(trifluoromethoxy)benzyl}amino)propyl]phosphonic acid]	13.6
CC(CCNCc1ccc(SCCCCCc2ccccc2)c(Cl)c1)P(=O)(O)O (stereo not drawn) [Compound 19, [3-({3-chloro-4-[(5-phenylpentyl)thio]benzyl}amino)-1-methylpropyl]phosphonic acid]	8.8
Cc1cc(CNCCCP(=O)(O)O)ccc1SCCCCCc1ccccc1 [Compound 20, [3-({3-methyl-4-[(5-phenylpentyl)thio]benzyl}amino)propyl]phosphonic acid]	3.2
O=P(O)(O)CCCNCc1ccc(SCCCCCc2ccccc2)c(F)c1 [Compound 21, [3-({3-fluoro-4-[(5-phenylpentyl)thio]benzyl}amino)propyl]phosphonic acid]	0.3
N#Cc1cc(CNCCCP(=O)(O)O)ccc1SCCCCCc1ccc(F)cc1 [Compound 22, {3-[(3-cyano-4-{[5-(4-fluorophenyl)pentyl]thio}benzyl)amino]propyl}phosphonic acid]	2.4
Cc1ccc(CCCCCSc2ccc(CNCCCP(=O)(O)O)cc2C)cc1 [Compound 23, {3-[(3-methyl-4-{[5-(4-methylphenyl)pentyl]thio}benzyl)amino]propyl}phosphonic acid]	41.4
O=P(O)(O)CCCNCc1ccc(SCCCCCc2ccc(F)cc2)cc1C(F)(F)F [Compound 24, (3-{[4-{[5-(4-fluorophenyl)pentyl]thio}-2-(trifluoromethyl)benzyl]amino}propyl)phosphonic acid]	8.7
O=P(O)(O)CCCNCc1cc(F)c(SCCCCC2(c3ccccc3)CCCCC2)cc1F [Compound 50, {3-[(2,5-difluoro-4-{[4-(1-phenylcyclohexyl)butyl]thio}benzyl)amino]propyl}phosphonic acid]	0.9
COc1ccc(CCCCCSc2ccc(CNCCCP(=O)(O)O)cc2OC(F)(F)F)cc1 [Compound 163, (3-{[4-{[5-(4-methoxyphenyl)pentyl]thio}-3-(trifluoromethoxy)benzyl]amino}propyl)phosphonic acid]	67.9
O=P(O)(O)CCCNCc1ccc(SCCCCC2(c3ccccc3)CCCCC2)c(Cl)c1 [Compound 164, {3-[(3-chloro-4-{[4-(1-phenylcyclohexyl)butyl]thio}benzyl)amino]propyl}phosphonic acid]	2
CC(C)(CCCCSc1ccc(CNCCCP(=O)(O)O)cc1Br)c1ccccc1 [Compound 165, [3-({3-bromo-4-[(5-methyl-5-phenylhexyl)thio]benzyl}amino)propyl]phosphonic acid]	13.1
O=P(O)(O)CCCNCc1ccc(SCCCCCc2ccccc2)c(Br)c1 [Compound-1, [3-({3-bromo-4-[(5-phenylpentyl)thio]benzyl}amino)propyl]phosphonic acid]	1.8

test system: blood lymphocytes; assay: Lymphopenia assay in mice; format: in vivo; conditions: 10 mg/Kg subcutaneously, female C57BL6 mice, after 5 hours, FIG. 1
Protocol: Test drugs are prepared in a solution containing 3% (w/v) 2-hydroxy propyl β-cyclodextrin (HPBCD) and 1% DMSO to a final concentration of 1 mg/ml, and subcutaneously injected to female C57BL6 mice (CHARLES RIVERS) weighing 20-25 g at the dose of 0.5 to 10 mg/Kg. Blood samples are obtained by puncturing the submandibular skin with a Goldenrod animal lancet at 5, 24, 48, 72, and 96 hrs post drug application. Blood is collected into microvettes (SARSTEDT) containing EDTA tripotassium salt. Lymphocytes in blood samples are counted using a HEMAVET Multispecies Hematology System, HEMAVET HV950FS (Drew Scientific Inc.).
A lymphopenia assay in mice; as previously described, was employed to measure the in vivo blood lymphocyte depletion after dosing with the test compound: [3-({3-bromo-4-[(5-phenylpentyl)thio]benzyl}amino)propyl]phosphonic acid Compound-1. This S1P1 modulator, [3-({3-bromo-4-[(5-phenylpentyl)thio]benzyl}amino)propyl]phosphonic acid Compound-1 is useful for S1P-related diseases and exemplified by the lymphopenia in vivo response. […] Lymphocytes in blood samples were counted using a HEMAVET Multispecies Hematology System, HEMAVET HV950FS (Drew Scientific Inc.). […]

Compound	lymphocyte count (number of lymphocytes in blood)
O=P(O)(O)CCCNCc1ccc(SCCCCCc2ccccc2)c(Br)c1 [Compound-1, [3-({3-bromo-4-[(5-phenylpentyl)thio]benzyl}amino)propyl]phosphonic acid]	< 1 10^3/μL blood
